Experimental data reported in paper PMC9820814, “In Vitro Reconstitution of the Melanin Pathway’s Catalytic Activities Using Tyrosinase Nanoparticles” (International Journal of Molecular Sciences, 2022).

Key:
TYRP1 = molecular target: T1, TYRP1 (Homo sapiens, UniProt P17643); experiment: DHICA oxidation, IQCA absorbance at […] nm; assay type: biochemical; conditions: 1.5 mM DHICA; pH 7.4; 37 °C; 24 h; no MBTH
T1 construct: recombinant truncated intra-melanosomal domain, C-terminal part with transmembrane helix removed, purified on His-Trap; baculovirus / T. ni larvae; ~59 kDa

TYR = molecular target: T2, TYR (Homo sapiens, UniProt P14679); experiment: diphenol oxidase activity, dopachrome absorbance at […] nm, Michaelis-Menten fit; assay type: biochemical; conditions: free enzyme; 10 min incubation; 10 mM NaPO4 pH 7.4; 37 °C; unit printed mM^−1 (sic, mM meant)
T2 construct: recombinant truncated intra-melanosomal domain, C-terminal part with transmembrane helix removed, His-tagged; baculovirus / T. ni larvae
T2 sequence (P14679 19-469 limits assumed): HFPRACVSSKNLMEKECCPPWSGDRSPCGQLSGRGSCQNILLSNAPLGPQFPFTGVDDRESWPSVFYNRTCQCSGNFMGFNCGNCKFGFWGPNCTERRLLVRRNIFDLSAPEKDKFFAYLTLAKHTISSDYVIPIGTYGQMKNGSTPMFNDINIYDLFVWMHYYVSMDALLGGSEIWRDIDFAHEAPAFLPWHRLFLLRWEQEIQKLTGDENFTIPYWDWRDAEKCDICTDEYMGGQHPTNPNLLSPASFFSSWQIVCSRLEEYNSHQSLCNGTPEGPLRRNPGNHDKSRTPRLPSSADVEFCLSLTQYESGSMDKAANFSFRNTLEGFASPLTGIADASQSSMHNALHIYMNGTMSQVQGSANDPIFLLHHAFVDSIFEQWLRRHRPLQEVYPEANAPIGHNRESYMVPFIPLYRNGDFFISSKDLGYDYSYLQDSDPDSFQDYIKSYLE

T1 sequence (P17643 25-477 limits assumed): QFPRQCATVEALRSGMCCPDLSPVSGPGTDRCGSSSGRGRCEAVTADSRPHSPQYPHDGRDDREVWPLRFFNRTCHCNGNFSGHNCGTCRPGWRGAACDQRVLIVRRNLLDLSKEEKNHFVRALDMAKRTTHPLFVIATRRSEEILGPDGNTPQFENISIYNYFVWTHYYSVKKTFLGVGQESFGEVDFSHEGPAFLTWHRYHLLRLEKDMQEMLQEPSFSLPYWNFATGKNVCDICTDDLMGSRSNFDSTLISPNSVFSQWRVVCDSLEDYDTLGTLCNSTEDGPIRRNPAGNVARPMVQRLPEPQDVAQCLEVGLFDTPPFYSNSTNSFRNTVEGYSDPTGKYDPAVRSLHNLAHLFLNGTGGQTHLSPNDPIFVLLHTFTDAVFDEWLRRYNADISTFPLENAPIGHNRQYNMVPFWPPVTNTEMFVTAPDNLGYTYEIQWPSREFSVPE

Row | Km (mM^-1) / Tyr (TYR) | Structure (SMILES) | DHICA oxidation, IQCA absorbance at 560 nm (TYRP1)
1 |  | O=C(O)c1cc2cc(O)c(O)cc2[nH]1 [DHICA] | the spectrum of the reaction shows the formation of a peak corresponding to a new product
2 | 0.241 ± 0.069 mM⁻¹ | N[C@@H](Cc1ccc(O)c(O)c1)C(=O)O [L-DOPA] | 
